Measured values taken from US10751308B2, “Composition for preventing or reducing transepidermal water loss” (NESTEC S.A., priority 2016, dated 2020).

Tested on: Balb/c female mice
Assay: Transepidermal water loss in pups of mothers receiving SCFA in drinking water during pregnancy (TEWLmeter method)
Format: in vivo
Details: 200 mM in drinking water of pregnant mothers from day 1 of pregnancy; TEWL at day 3 after birth; vs regular drinking water; FIG. 1
Description: • Breeding pairs were set up with 1 Balb/c male and 2 Balb/c female mice. • From day 1 of pregnancy, female mice received 200 mM sodium acetate or sodium propionate ad libitum in drinking water. These doses correspond to 0.05-0.1 and 0.05-0.08 g/mouse/day, respectively. Control female mice received regular drinking water. • Cages were monitored from day 18-24 for litters. Regular drinking water was recommenced in the mothers as soon as pups were born. 6-7 pups per group were included in the experiment. • Transepidermal water loss was measured at day 3 after birth (baseline TEWL) by the TEWLmeter method and given in g·h^−1·m^−2.

Compound	transepidermal water loss in offspring
CC(=O)[O-].[Na+] [acetate, sodium acetate]	significantly decreased
CCC(=O)[O-].[Na+] [propionate, sodium propionate]	significantly decreased
